Counter-ions that a name gives are not always drawn.
SMILES	melting point
N#Cc1cc(-c2nccs2)[nH]c1C(CC1CCOCC1)c1ccc(S(=O)(=O)C2CC2)cc1 (stereo not drawn) [Example 107, 2-{1-[4-(cyclopropylsulfonyl)phenyl]-2-(tetrahydro-2H-pyran-4-yl)ethyl}-5-(1,3-thiazol-2-yl)-1H-pyrrole-3-carbonitrile]	114 to 116 °C
O=C1CC[C@H](CC(c2ccc(S(=O)(=O)C3CC3)cc2)c2ccc(-c3nccs3)[nH]2)C1 (stereo partly drawn) [Example 102, (3R)-3-{2-[4-(cyclopropylsulfonyl)phenyl]-2-[5-(1,3-thiazol-2-yl)-1H-pyrrol-2-yl]ethyl}cyclopentanone]	165 to 167 °C
O=C(O)CCc1cnc(-c2ccc(C(CC3CCOCC3)c3ccc(S(=O)(=O)C4CC4)cc3)[nH]2)s1 (stereo not drawn) (as salt: calcium) [Example 163, 3-[2-(5-{1-[4-(cyclopropylsulfonyl)phenyl]-2-(tetrahydro-2H-pyran-4-yl)ethyl}-1H-pyrrol-2-yl)-1,3-thiazol-5-yl]propanoic acid 1/2 calcium salt]	> 194 °C (dec.)
O=C(O)c1cc(-c2nccs2)[nH]c1C(CC1CCOCC1)c1ccc(S(=O)(=O)C2CC2)cc1 (stereo not drawn) [Example 104, 2-{1-[4-(cyclopropylsulfonyl)phenyl]-2-(tetrahydro-2H-pyran-4-yl)ethyl}-5-(1,3-thiazol-2-yl)-1H-pyrrole-3-carboxylic acid]	153 to 155 °C
CN(C)C(=O)c1cc(-c2nccs2)[nH]c1C(CC1CCOCC1)c1ccc(S(=O)(=O)C2CC2)cc1 (stereo not drawn) [Example 105, 2-{1-[4-(cyclopropylsulfonyl)phenyl]-2-(tetrahydro-2H-pyran-4-yl)ethyl}-N,N-dimethyl-5-(1,3-thiazol-2-yl)-1H-pyrrole-3-carboxamide]	180 to 182 °C
Cl.O=C1CCN(Cc2cnc(-c3ccc(C(CC4CCOCC4)c4ccc(S(=O)(=O)C5CC5)cc4)[nH]3)s2)CC1 (stereo not drawn)	146 to 148 °C
CS(=O)(=O)c1ccc(C(CC2CCOCC2)c2cnc(-c3ccccn3)[nH]2)cc1Cl (stereo not drawn) [Example 183, 2-(5-{1-[3-chloro-4-(methylsulfonyl)phenyl]-2-(tetrahydro-2H-pyran-4-yl)ethyl}-1H-imidazol-2-yl)pyridine]	106 to 109 °C
CC(C)(O)C(O)c1ccc(-c2ccc(/C(=C/C3CCOCC3)c3ccc(S(=O)(=O)C4CC4)cc3)[nH]2)nc1 (stereo not drawn) [Example 220, 1-(6-{5-[(E)-1-[4-(cyclopropylsulfonyl)phenyl]-2-(tetrahydro-2H-pyran-4-yl)ethenyl]-1H-pyrrol-2-yl}pyridin-3-yl)-2-methylpropane-1,2-diol]	196 to 197 °C
CC(C)(O)C(O)c1ccc(-c2ccc(C(CC3CCOCC3)c3ccc(S(C)(=O)=O)c(Cl)c3)[nH]2)nc1 (stereo not drawn) [Example 133, 1-[6-(5-{1-[3-chloro-4-(methylsulfonyl)phenyl]-2-(tetrahydro-2H-pyran-4-yl)ethyl}-1H-pyrrol-2-yl)pyridin-3-yl]-2-methylpropane-1,2-diol]	138 to 140 °C
CC(c1cnc(-c2ccc(C(CC3CCOCC3)c3ccc(S(=O)(=O)C4CC4)cc3)[nH]2)s1)N(C)C (stereo not drawn) (as salt: hydrochloride) [Example 157, 1-[2-(5-{1-[4-(cyclopropylsulfonyl)phenyl]-2-(tetrahydro-2H-pyran-4-yl)ethyl}-1H-pyrrol-2-yl)-1,3-thiazol-5-yl]-N,N-dimethylethanamine dihydrochloride]	147 to 148 °C
O=C1CN(Cc2cnc(-c3ccc(C(CC4CCOCC4)c4ccc(S(=O)(=O)C5CC5)cc4)[nH]3)s2)C(=O)N1 (stereo not drawn) [Example 147, 1-{[2-(5-{1-[4-(cyclopropylsulfonyl)phenyl]-2-(tetrahydro-2H-pyran-4-yl)ethyl}-1H-pyrrol-2-yl)-1,3-thiazol-5-yl]methyl}imidazolidine-2,4-dione]	184 to 185 °C

Continued, values first:

melting point	SMILES
110 to 112 °C	CC(C)(O)COc1ccc(-c2ccc(C(CC3CCOCC3)c3ccc(S(=O)(=O)C4CC4)cc3)[nH]2)nc1 (stereo not drawn) [Example 116, 1-{[6-(5-{1-[4-(cyclopropylsulfonyl)phenyl]-2-(tetrahydro-2H-pyran-4-yl)ethyl}-1H-pyrrol-2-yl)pyridin-3-yl]oxy}-2-methylpropan-2-ol]
139 to 141 °C	N#CCc1ccc(-c2ccc(C(CC3CCOCC3)c3ccc(S(=O)(=O)C4CC4)cc3)[nH]2)nc1 (stereo not drawn) [Example 128, [6-(5-{1-[4-(cyclopropylsulfonyl)phenyl]-2-(tetrahydro-2H-pyran-4-yl)ethyl}-1H-pyrrol-2-yl)pyridin-3-yl]acetonitrile]
109 to 110 °C	O=C(c1ccc(-c2ccc(C(CC3CCOCC3)c3ccc(S(=O)(=O)C4CC4)cc3)[nH]2)nc1)N1CCC1 (stereo not drawn) [Example 120]
126 to 128 °C	CC(C)(O)CNC(=O)c1ccc(-c2ccc(C(CC3CCOCC3)c3ccc(S(=O)(=O)C4CC4)cc3)[nH]2)nc1 (stereo not drawn) [Example 123, 6-(5-[1-[4-(cyclopropylsulfonyl)phenyl]-2-(tetrahydro-2H-pyran-4-yl)ethyl]-1H-pyrrol-2-yl)-N-(2-hydroxy-2-methylpropyl)pyridine-3-carboxamide]
151 to 153 °C	NC(=O)Cc1ccc(-c2ccc(C(CC3CCOCC3)c3ccc(S(=O)(=O)C4CC4)cc3)[nH]2)nc1 (stereo not drawn) [Example 132, 2-[6-(5-{1-[4-(cyclopropylsulfonyl)phenyl]-2-(tetrahydro-2H-pyran-4-yl)ethyl}-1H-pyrrol-2-yl)pyridin-3-yl]acetamide]
115 to 116 °C	CC(O)c1cnc(-c2ccc(C(CC3CCOCC3)c3ccc(S(=O)(=O)C4CC4)cc3)[nH]2)s1 (stereo not drawn) [Example 168, Optically Active Form of 1-[2-(5-{1-[4-(cyclopropylsulfonyl)phenyl]-2-(tetrahydro-2H-pyran-4-yl)ethyl}-1H-pyrrol-2-yl)-1,3-thiazol-5-yl]ethanol]
124 to 127 °C	O=C(O)Cc1ccc(-c2ccc(C(CC3CCOCC3)c3ccc(S(=O)(=O)C4CC4)cc3)[nH]2)nc1 (stereo not drawn) [Example 129, [6-(5-{1-[4-(cyclopropylsulfonyl)phenyl]-2-(tetrahydro-2H-pyran-4-yl)ethyl}-1H-pyrrol-2-yl)pyridin-3-yl]acetic acid]
114 to 116 °C	O=C(c1ccc(-c2ccc(C(CC3CCOCC3)c3ccc(S(=O)(=O)C4CC4)cc3)[nH]2)nc1)N1CCOCC1 (stereo not drawn) [Example 121, 5-(morpholin-4-ylcarbonyl)-2-(5-[1-[4-(cyclopropylsulfonyl)phenyl]-2-(tetrahydro-2H-pyran-4-yl)ethyl]-1H-pyrrol-2-yl)pyridine]
112 to 114 °C	CC(O)c1cnc(-c2ccc(C(CC3CCOCC3)c3ccc(S(=O)(=O)C4CC4)cc3)[nH]2)s1 (stereo not drawn) [Example 167, Optically Active form of 1-[2-(5-{1-[4-(cyclopropylsulfonyl)phenyl]-2-(tetrahydro-2H-pyran-4-yl)ethyl}-1H-pyrrol-2-yl)-1,3-thiazol-5-yl]ethanol]
202 to 203 °C	O=C(Cc1ccc(-c2ccc(C(CC3CCOCC3)c3ccc(S(=O)(=O)C4CC4)cc3)[nH]2)nc1)N1CCOCC1 (stereo not drawn) [Example 130, 4-{[6-(5-{1-[4-(cyclopropylsulfonyl)phenyl]-2-(tetrahydro-2H-pyran-4-yl)ethyl}-1H-pyrrol-2-yl)pyridin-3-yl]acetyl}morpholine]

Reference: patent US8318746B2, “Nitrogen-containing five-membered heterocyclic compound” (Takeda Pharmaceutical Company Limited, priority 2007, dated 2012)
